pIC50: −log10 of the molar value.
What was measured:
DU145 tumor cells = test: MTT growth inhibition of DU145 cells, 72 h; format: cell-based, human; conditions: for pIC50 / IC90: DU145, 72 h, MTT
Method: DU145 cells were inoculated in RPM11640 medium containing 10% calf serum, incubated at 37° C., 5% CO2 in CO2 incubator, and passaged every 2-3 days. In this experiment, cells were grown in logarithmic growth phase.
In the experiment, the cells at logarithmic growth phase were formulated into suspension, and the viability by trypan blue staining was more than 98%. The suspension was divided into several groups: 1 as blank control group (cell suspension); and 2 as experimental groups (cell suspension plus drugs).
(§1) The drugs were formulated into a stock solution in DMSO, and the concentration of the stock solution was 20 mmol (used within 4 hours). In the experiment, the work solution of the drugs was diluted with RPM11640 medium containing 10% calf serum under aseptic condition, to a final concentration of 80 μM. The drug concentrations were increased by 2 times (1.25-20 μM).
(§2) The DU145 cell in logarithmic growth phase were selected, centrifuged, counted, and formulated into a cell suspension (2.5×10^4/ml) with RPM11640 medium containing 10% calf serum. The cell suspension were inoculated into 96-well plates at a density of 5000 cells/200 μl per well, incubated for 24 hours at 37° C., 5% CO2. According to the above concentration of the drug, the cells were inoculated to 6 groups (including one control group), with 8 wells per group. After incubating for 72 hours, the viability of cells was measured by MTT assay. The absorbance value (A) was measured with detection wavelength at 540 nm, reference wavelength at 630 nm. The inhibitory rate (I) was calculated by the following equation, where T was the absorbance value of the experimental groups, and C was the absorbance value of the blank control group: I=(1−T/C)×100%
(§3) The regression equation was calculated by the concentration-inhibitory rate curve, to obtain 50% and 90% inhibition concentration (IC50 and IC90, μM).

[1] = system: human hepatoma cell line 7701 QGY; test: MTT growth inhibition of 7701 QGY cells; format: cell-based; conditions: read-out: IC50 (μM) Tumor cells 7701 QGY
Method: as §1, §2, §3
(§4) 1. Tumor Cells: human hepatoma cell lines 7701 QGY and HepG-2, human lung adenocarcinoma cell line A549, human chronic myelocytic leukemia cell line K562, human leukemia cell line CEM and mouse melanoma cell line K111.
(§5) 2. Using the methods described in example 2, the biological activity of a portion of newly synthesized 5- or 7-azaindirubin derivatives and 5- or 7-azaisoindigo derivatives (20 compounds) for inhibiting various tumor cells growth were determined.

[2] = system: human hepatoma cell line HepG-2; test: MTT growth inhibition of HepG-2 cells; format: cell-based; conditions: HepG-2, MTT; read-out: IC50 (μM) Tumor cells HepG-2
Method: as §1, §2, §3, §4, §5

[3] = system: human lung adenocarcinoma cell line A549; test: MTT growth inhibition of A549 cells; format: cell-based; conditions: read-out: IC50 (μM) Tumor cells A549
Method: as §1, §2, §3, §4, §5

[4] = system: human chronic myelocytic leukemia cell line K562; test: MTT growth inhibition of K562 cells; format: cell-based; conditions: read-out: IC50 (μM) Tumor cells K562
Method: as §1, §2, §3, §4, §5

[5] = system: human leukemia cell line CEM; test: MTT growth inhibition of CEM cells; format: cell-based; conditions: read-out: IC50 (μM) Tumor cells CEM
Method: as §1, §2, §3, §4, §5

[6] = system: mouse melanoma cell line K111; test: MTT growth inhibition of K111 cells; format: cell-based; conditions: Klll, read-out: IC50 (μM) Tumor cells Klll
Method: as §1, §2, §3, §4, §5

[7] = Homo sapiens, DU-145, 72 h, Table 5
[8] = Homo sapiens, DU-145, 72 h, Table 6

Row | pIC50 (DU145 tumor cells; Table 6) | IC90 (DU145 tumor cells; Table 6) [µM] | pIC50 (DU145 tumor cells; Table 5) | IC90 (DU145 tumor cells; Table 5) [µM] | SMILES | further results
1 | 5.13 | 34 | – | – | CNc1cnc2c(c1)C(=C1Nc3ccc(F)cc3C1=O)C(=O)N2Cc1ccccc1 [Compound 111] | IC50 [1]: 28.5 µM; IC50 [2]: 17 µM; IC50 [3]: 24.3 µM; IC50 [4]: 15 µM; IC50 [5]: 11 µM; IC50 [6]: 15.1 µM
2 | – | – | 4.80 | 51 | CCCCN1C(=O)C(=C2C(=O)Nc3ccccc32)c2cnccc21 [Compound 78] | –
3 | 5.08 | 28 | – | – | CC(C)N1C(=O)C(=C2C(=O)Nc3ccc(Br)cc32)c2cccnc21 [Compound 165] | –
4 | 5.43 | 5 | – | – | CCCCN1C(=O)C(=C2Nc3ccc(Br)cc3C2=NO)c2cccnc21 [Compound 123] | –
5 | – | – | 5.19 | 22 | CCN1C(=O)C(=C2Nc3ccccc3C2=NO)c2cnccc21 [Compound 38] | –
6 | – | – | 4.94 | 39 | CCCCN1C(=O)C(=C2Nc3ccccc3C2=O)c2cnccc21 [Compound 8] | –
7 | 4.85 | 45 | – | – | CCN1C(=O)C(=C2C(=O)Nc3ccc(Cl)cc32)c2cccnc21 [Compound 161] | –
8 | – | – | 5.01 | 29 | CC(C)N1C(=O)C(=C2C(=O)Nc3ccc(Cl)cc32)c2cnccc21 [Compound 75] | –
9 | – | – | 5.43 | 11.5 | CC(C)N1C(=O)C(=C2Nc3ccc(Cl)cc3C2=NO)c2cnccc21 [Compound 31] | –
10 | 5.09 | 28.5 | – | – | CC(C)N1C(=O)C(=C2Nc3ccc(Br)cc3C2=O)c2cccnc21 [Compound 105] | IC50 [1]: 13.4 µM; IC50 [2]: 32 µM; IC50 [3]: 24.1 µM; IC50 [4]: 19 µM; IC50 [5]: 8 µM; IC50 [6]: 11.9 µM
11 | 5.00 | 32.2 | – | – | CCN1C(=O)C(=C2Nc3ccc(Br)cc3C2=O)c2cccnc21 [Compound 103] | –
12 | 5.15 | 17 | – | – | CC(C)N1C(=O)C(=C2Nc3ccccc3C2=NO)c2cccnc21 [Compound 130] | –
13 | – | – | 4.84 | 77 | CCCCN1C(=O)C(=C2C(=O)Nc3ccc(Br)cc32)c2cnccc21 [Compound 79] | –
14 | – | – | 5.14 | 20 | O=C1C(=C2Nc3ccc(Cl)cc3C2=NO)c2cnccc2N1Cc1ccccc1 [Compound 35] | –
15 | – | – | 4.92 | 85 | O=C1C(=C2C(=O)N(Cc3ccccc3)c3ccncc32)Nc2ccccc21 [Compound 9] | –
16 | 4.85 | 26 | – | – | CCCCN1C(=O)C(=C2Nc3ccc(Br)cc3C2=O)c2cccnc21 [Compound 107] | –
17 | 5.02 | 31.5 | – | – | O=C1C(=C2C(=O)N(Cc3ccccc3)c3ncccc32)Nc2ccccc21 [Compound 100] | –
18 | 4.96 | 42 | – | – | CCCCN1C(=O)C(=C2Nc3ccc(Cl)cc3C2=O)c2cccnc21 [Compound 108] | –
19 | – | – | – | – | CCN1C(=O)/C(=C2\Nc3ccccc3C2=O)c2ccccc21 [Compound 90, 1-ethyl-indirubin, reference compound] | pIC50 (DU145 tumor cells; [7]): 5.14; IC90 (DU145 tumor cells; [7]): 31 µM; pIC50 (DU145 tumor cells; [8]): 5.15; IC90 (DU145 tumor cells; [8]): 30 µM
20 | 4.98 | 49 | – | – | CC(=O)OCC1OC(N2C(=O)C(=C3C(=O)Nc4ccccc43)c3cc(C)cnc32)C(OC(C)=O)C1OC(C)=O (centres unmarked) [Compound 158] | IC50 [1]: 44 µM; IC50 [2]: 18 µM; IC50 [3]: 22.3 µM; IC50 [4]: 5.8 µM; IC50 [5]: 12 µM; IC50 [6]: 8.3 µM
21 | 4.37 | > 100 | – | – | CN1C(=O)C(=C2C(=O)Nc3ccc(F)cc32)c2cccnc21 [Compound 154] | IC50 [1]: 36 µM; IC50 [2]: 29.3 µM; IC50 [3]: 12.4 µM; IC50 [4]: 19 µM; IC50 [5]: 9.8 µM; IC50 [6]: 12 µM
22 | 5.57 | 7.1 | – | – | CN1C(=O)C(=C2Nc3ccccc3C2=NO)c2cccnc21 [Compound 128] | IC50 [1]: 7.6 µM; IC50 [2]: 12.6 µM; IC50 [3]: 10 µM; IC50 [4]: 7.7 µM; IC50 [5]: 10.5 µM; IC50 [6]: 3.6 µM
23 | < 4.00 | > 100 | – | – | CCCCN1C(=O)C(=C2C(=O)Nc3ccc(F)cc32)c2cccnc21 [Compound 173] | –

Row | pIC50 (DU145 tumor cells; Table 6) | IC90 (DU145 tumor cells; Table 6) [µM] | pIC50 (DU145 tumor cells; Table 5) | IC90 (DU145 tumor cells; Table 5) [µM] | SMILES | further results
24 | 4.85 | 61 | – | – | CCN1C(=O)C(=C2C(=O)N(CC)c3ncccc32)c2cc(Br)ccc21 [Compound 160] | IC50 [1]: 25.4 µM; IC50 [2]: 31.1 µM; IC50 [3]: 29.1 µM; IC50 [4]: 10.2 µM; IC50 [5]: 10.8 µM; IC50 [6]: 15 µM
25 | – | – | < 4.00 | > 100 | CCCCN1C(=O)C(=C2C(=O)Nc3ccc(F)cc32)c2cnccc21 [Compound 82] | –
26 | 5.05 | 46 | – | – | CCCCN1C(=O)C(=C2C(=O)Nc3ccc(Cl)cc32)c2cccnc21 [Compound 171] | –
27 | – | – | 5.35 | 14 | CCN1C(=O)C(=C2Nc3ccc(Br)cc3C2=NO)c2cnccc21 [Compound 28] | –
28 | – | – | 5.77 | 12.2 | CN1C(=O)C(=C2Nc3ccc(Cl)cc3C2=NO)c2cnccc21 [Compound 25] | growth inhibitory effects on tumor cells (in words) (DU145 tumor cells; discussion of the MTT assay, DU145): relatively significant growth inhibitory effects
29 | – | – | 4.77 | 87 | CCN1C(=O)C(=C2C(=O)Nc3ccc(F)cc32)c2cnccc21 [Compound 71] | –
30 | – | – | 5.66 | 6.8 | CCN1C(=O)C(=C2Nc3ccc(Cl)cc3C2=NO)c2cnccc21 [Compound 29] | –
31 | < 4.00 | – | – | – | CC(C)N1C(=O)C(=C2Nc3ccccc3C2=O)c2cccnc21 [Compound 98] | –
32 | 5.10 | 25 | – | – | CC(C)N1C(=O)C(=C2Nc3ccc(Cl)cc3C2=NO)c2cccnc21 [Compound 122] | –
33 | 5.07 | 45 | – | – | CCN1C(=O)C(=C2Nc3ccc(Cl)cc3C2=O)c2cccnc21 [Compound 104] | –
34 | – | – | – | – | O=C1Nc2ccc(Br)cc2C1=C1C(=O)N(Cc2ccccc2)c2ncccc21 [Compound 176] | IC50 [1]: 13.7 µM; IC50 [2]: 20.6 µM; IC50 [3]: 13.2 µM; IC50 [4]: 4.1 µM; IC50 [5]: 7.4 µM; IC50 [6]: 8.3 µM
35 | – | – | < 4.00 | – | CC(C)N1C(=O)C(=C2Nc3ccccc3C2=O)c2cnccc21 [Compound 7] | –
36 | 5.00 | 31.5 | – | – | CC(C)N1C(=O)C(=C2C(=O)Nc3ccc(Cl)cc32)c2cccnc21 [Compound 166] | –
37 | 4.76 | 89 | – | – | CCN1C(=O)C(=C2C(=O)Nc3ccc(F)cc32)c2cccnc21 [Compound 162] | –
38 | – | – | 5.06 | 28 | CCN1C(=O)C(=C2Nc3ccc(Br)cc3C2=O)c2cnccc21 [Compound 12] | –
39 | 4.85 | 47 | – | – | CCCCN1C(=O)C(=C2C(=O)Nc3ccccc32)c2cccnc21 [Compound 169] | –
40 | – | – | – | – | CC1=C(/C=C/C(C)=C/C=C/C(C)=C/C(=O)O)C(C)(C)CCC1 [all-trans retinoic acid, reference compound] | pIC50 (DU145 tumor cells; [7]): < 4.30; pIC50 (DU145 tumor cells; [8]): < 4.30
41 | – | – | 5.10 | 44 | CC(=O)OCC1OC(N2C(=O)C(=C3C(=O)Nc4ccccc43)c3cnccc32)C(OC(C)=O)C1OC(C)=O (centres unmarked) [Compound 67] | –
42 | – | – | 5.05 | 48 | CC(C)N1C(=O)C(=C2Nc3ccc(Cl)cc3C2=O)c2cnccc21 [Compound 15] | –
43 | 4.80 | 80 | – | – | CCCCN1C(=O)C(=C2Nc3ccccc3C2=NO)c2cccnc21 [Compound 131, 1-butyl-7-azaindirubin-3′-oxime] | –
44 | 5.27 | 61 | – | – | CCN1C(=O)C(=C2Nc3ccc(Cl)cc3C2=NO)c2cccnc21 [Compound 120] | –
45 | – | – | 4.32 | > 100 | CN1C(=O)C(=C2C(=O)Nc3ccc(F)cc32)c2cnccc21 [Compound 63] | –

Source: patent US8642765B2, “Azaindole-indole coupled derivatives, preparation methods and uses thereof” (priority 2007, dated 2014)
